We go through 9 compounds from patent publication US9402819B2, “Anti-HIV compound and preparation method and use thereof” (Sichuan University, priority 2012, dated 2016).

The structures appear in SMILES notation. Converted amounts (≈) assume the structure as drawn.

Data set [1] can be described thus: Cytotoxicity (CC50) in C8166 cells. The format is cell-based. To be noted: human.
Procedure: (§1) The anti-HIV activity was determined by the “Guiding Principles of Anti HIV Drug Unclinical Pharmacodynamics” of SFDA which is tested by technology standard assay according to International Universal Standards and Methods. Where in CC50, EC50 were measured twice and took the average.
Data set [2] in a line: Cytotoxicity (CC50) in H9 cells. It counts as cell-based, human. To be noted: human, read-out: CC50.
Procedure: as §1
A short description of data set [3]: Solubility in aqueous solution. The format is physicochemical. The source says:
Solubility is an important parameter of druggability. […] They are with good solubility and can be formulated into an oral formulation. The prodrugs can be hydrolyzed into 46 which is with good fat-solubility and TI as well as distribution.

Data set [4] is described as follows: Stability (degradation) in solutions of different pH. The format is physicochemical. Here is the method: For example, compound 67 was tested in solutions with PH=4.004, 6.864 and 9.182, and its degradation rate was […]. […] As to the Mechanism of action of the compounds, the possible binding mode between 46 and vif was predicted by docking There are five possible hydrogen bonds between them: two hydrogen bonds between the nitro group and Arg79 and Lys178, two hydrogen bonds between the oxygen atom of methoxyl group with His141 and Arg97, one hydrogen bond between the nitrogen atom of pyridine with Gly103. (The binding mode can be seen in FIG. 4)

For data set [5] the following is noted: for safety at high dose: high dose (10 g/kg); for acute toxicity test finding: in vivo.
Data set [6] is described as follows: Activity for HIV-2 ROD.
The subject of data set [7] is HIV-2 ROD. As to the kind of experiment: Activity for HIV-2 ROD. To be noted: for EC50: Human immunodeficiency virus 2; for TI: HIV-2 ROD.
A short description of data set [8]: Activity for HIV-2 CBL-20.
Data set [9] relates to HIV-2 CBL-20. The data set is described as follows: Activity for HIV-2 CBL-20. The conditions noted are these: for EC50: Human immunodeficiency virus 2; for TI: HIV-2 CBL-20.
The test system of data set [10] is HIV-1IIIB. As to the kind of experiment: Anti-HIV activity in C8166 cells. It counts as cell-based. The conditions noted are these: for TI: CC50/EC50.
Procedure: as §1
Data set [11] concerns HIV-1IIIB. The data set is described as follows: Anti-HIV activity in H9 cells. It counts as cell-based. The conditions noted are these: for TI: CC50/EC50.
Procedure: as §1
The test system of data set [12] is HIV-1A17. The data set is described as follows: microbe, parasite or virus in culture. To be noted: Human immunodeficiency virus 1.
The subject of data set [13] is HIVKM018. As to the kind of experiment: microbe, parasite or virus in culture. To be noted: Human immunodeficiency virus 1.
The test system of data set [14] is HIV-1TC-1. As to the kind of experiment: microbe, parasite or virus in culture. The conditions noted are these: Human immunodeficiency virus 1.
Data set [15] concerns H9 cells. As to the kind of experiment: Cytotoxicity (CC50) in H9 cells. The format is cell-based, human.
Procedure: as §1
The mark [16] stands for this setting: Human immunodeficiency virus 1, HIV-1IIIB, C8166 cells, read-out: EC50.
Where [17] appears, read: Human immunodeficiency virus 1, HIV-1IIIB, H9 cells, read-out: EC50.
The mark [18] stands for this setting: simulated gastric fluid, in aqueous solution (pH=2).

On to `COc1ccccc1NC(=O)c1c(NC(=O)CN)cccc1S(=O)(=O)c1ccc([N+](=O)[O-])cc1.Cl` [Compound 67, 2-(2-aminoacetamido)-N-(2-methoxyphenyl)-6-((4-nitrophenyl)sulfonyl)benzamide hydrochloride hydrochloride], for which the CC50 is 165 µg/mL in data set [1], 94.9 µg/mL in [2] (H9 cells), 126 µg/mL in data set [6] and 106 µg/mL in data set [8]. The solubility (usually the concentration that dissolves in the medium under given conditions) in data set [3] (aqueous buffer, in water with pH=7) was determined as 1730 µg/mL. The degradation rate was determined as 0.2767 in data set [4] (solution PH=4.004), 0.4956 in [4] (solution PH=6.864) and 9.182 in data set [4] (solution PH=9.182). In addition, the “safety at high dose” value in [5] is reported as “very safe”. The “acute toxicity test finding” value in [5] is recorded as “no abnormal phenomenon occurred”. Moreover, the EC50 (commonly the concentration that produces a half-maximal response) was 0.78 µg/mL in data set [7] and 1.21 µg/mL in data set [9].

For the compound `COc1ccccc1NC(=O)c1c(N)cccc1S(=O)(=O)c1ccc([N+](=O)[O-])cc1` [Compound 46, 2-amino-N-(2-methoxyphenyl)-6-((4-nitroph-enyl)sulfonyl)benzamide], the CC50 in data set [1] is 141 µg/mL (≈ 329 µM); in data set [2] it was more than 200 µg/mL; in [6], more than 200 µg/mL; in [8] it was more than 200 µg/mL. For the same compound, the EC50 in [10] (setting [16]) worked out at 0.096 µg/mL (≈ 0.225 µM); in [11] (setting [17]), 0.66 µg/mL (≈ 1.54 µM); in [12] it was 18.7 µg/mL (≈ 43.8 µM); in [13], 6.23 µg/mL (≈ 14.6 µM); in data set [14], 0.11 µg/mL (≈ 0.257 µM); in data set [7] it was 0.41 µg/mL (≈ 0.959 µM). In data set [9], this compound showed an EC50 of 0.45 µg/mL (≈ 1.05 µM). Besides, the “safety at high dose” value in [5] was “very safe”. In addition, the “acute toxicity test finding” value in data set [5] is “no abnormal phenomenon occurred”. The figures for the TI in data set [7] and in data set [9] were 487.8 and 444.44, respectively.

In turn, `COc1ccccc1NC(=O)c1c(N)cccc1Oc1ccc([N+](=O)[O-])cc1` [Compound 48, 2-amino-N-(2-methoxyphenyl)-6-(4-nitrop-henoxy)benzamide] yielded a CC50 in data set [15] of 76.60 µg/mL (≈ 202 µM). Besides, the TI in [11] (H9 cells) stood at 2.14.

As for `COc1ccccc1NC(=O)c1c(N)cccc1Sc1ccc([N+](=O)[O-])cc1` [Compound 25, 2-amino-N-(2-methoxyphenyl)-6-(4-nitrophenylthi-o)benzamide], the CC50 in [1] was 65.4 µg/mL (≈ 165 µM); in data set [2] (H9 cells) it was 153 µg/mL (≈ 387 µM); in data set [6] it was 185 µg/mL (≈ 467 µM); in data set [8], 164 µg/mL (≈ 414 µM). The TI in [10] (C8166 cells) is recorded as 310.02; in [11] (H9 cells), 206.68; in [7], 312.90; in [9], 199.72. Further, the EC50 turned out to be 0.21 µg/mL (≈ 0.531 µM) in data set [10] (setting [16]), 0.74 µg/mL (≈ 1.87 µM) in [11] (setting [17]), 0.59 µg/mL (≈ 1.49 µM) in data set [7] and 0.82 µg/mL (≈ 2.07 µM) in data set [9].

Take `Nc1ccc(NC(=O)c2c(Sc3ccc([N+](=O)[O-])cc3)cccc2[N+](=O)[O-])cc1` [Compound 55, N-(4-aminophenyl)-2-nitro-6-(4-nitrophenylthio)benzamide]: the CC50 in data set [1] and in [2] (H9 cells) was more than 200 µg/mL each time. For the same compound, the EC50 in data set [10] (setting [16]) and in data set [11] (setting [17]) was more than 200 µg/mL throughout.

Regarding `COc1ccccc1NC(=O)c1c(NC(=O)CN)cccc1Sc1ccc([N+](=O)[O-])cc1.Cl` [Compound 66, 2-(2-aminoacetamido)-N-(2-methoxyphenyl)-6-(4-nitrophenylthio)benzamide hydrochloride], the CC50 in data set [1] stood at 78.3 µg/mL; in data set [2] (H9 cells), 72.3 µg/mL. The TI in data set [10] (C8166 cells) came to 97.01; in [11] (H9 cells), 451.69. Moreover, the half-maximal effective concentration (EC50) in [10] (setting [16]) stood at 0.81 µg/mL; in data set [11] (setting [17]), 0.16 µg/mL. Besides, the solubility in data set [3] (setting [18]) was 1290 µg/mL.

`COc1ccccc1NC(=O)c1c(NS(=O)(=O)c2ccc(C)cc2)cccc1S(=O)(=O)c1ccc([N+](=O)[O-])cc1` [Compound 60, N-(2-methoxyphenyl)-2-(4-methylphenyls-ulfonamido)-6-((4-nitrophenyl)sulfonyl)benzamide]: the CC50 in data set [1] and in data set [2] (H9 cells) was more than 200 µg/mL throughout. Moreover, the TI in data set [10] (C8166 cells) is more than 2.19. For the same compound, the results for the EC50 in [10] (setting [16]) and in data set [11] (setting [17]) were 91.3 µg/mL (≈ 157 µM) and more than 200 µg/mL, respectively.

Turning to `COc1ccccc1NC(=O)c1c(NC(=O)C(N)CCCCN)cccc1Sc1ccc([N+](=O)[O-])cc1.Cl` (stereo not drawn) [Compound 68, 2-(2,6-diaminohexanamido)-N-(2-methoxyphenyl)-6-((4-nitrophenyl)thio)benzamide hydrochloride], the CC50 in [1] turned out to be 116 µg/mL; in data set [2] (H9 cells) it was 90.1 µg/mL. The same compound registered a solubility in data set [3] (setting [18]) of 2850 µg/mL.

For `COc1ccccc1NC(=O)c1c(NCCBr)cccc1Sc1ccc([N+](=O)[O-])cc1` [Compound 64, 2-((2-bromoethyl)amino)-N-(2-methoxyp-henyl)-6-((4-nitrophenyl)thio)benzamide], the CC50 stood at 10.4 µg/mL (≈ 20.7 µM) in data set [1] and 17.8 µg/mL (≈ 35.5 µM) in data set [2] (H9 cells). Further, the TI in [10] (C8166 cells) came to 3.28; in data set [11] (H9 cells), 0.85. The EC50 in data set [10] (Human immunodeficiency virus 1, C8166) was 3.17 µg/mL (≈ 6.31 µM); in data set [11] (Human immunodeficiency virus 1, H9), 21 µg/mL (≈ 41.8 µM).
